Test results taken from the NIST ThermoML archive (doi:10.1016/j.jct.2008.04.005).
Numbers after ± are expanded uncertainties.

Experiment: molar enthalpy of vaporization or sublimation
Conditions: 298.15 K, Liquid

Row | molar enthalpy (Calvet microcalorimetry) | molar enthalpy (Vacuum drop calorimetry) | SMILES
1 | 9.61 ± 0.43 kcal/mol |  | Cc1ccc(C)s1 [2,5-dimethylthiophene]
2 |  | 14.7 ± 0.621 kcal/mol | CC(=O)c1cc(C)sc1C [3-acetyl-2,5-dimethylthiophene]
